Assay results reported in publication PMC6943612, “Investigation of Anti-Inflammatory Potential of N-Arylcinnamamide Derivatives” (Molecules, 2019).

Test system: MAPKs (p38, ERK1/2, JNK)
Assay: Signaling pathway analysis (Western blot): phosphorylated MAPKs
Assay type: cell-based
Conditions: 2 µM, 30 min after LPS 1 µg/mL
Method: (§1) The level of IĸB and the amount of activated (phosphorylated) mitogen-activated protein (MAP) kinase p38, ERK1/2, and JNK was determined on the THP1-Blue™ NF-κB, in a way similar to that described previously. Briefly, cells cultivated in serum-free medium were pretreated with the tested compounds (8, 17, cinnamic acid, or prednisone) at concentration 2 µM. One hour later, 1 µg/mL of LPS was added, and after 30 min the cells were collected into ice-cold Mammalian Cell Lysis Buffer (Abcam, Cambridge, UK) with phosphatase inhibitors PhosSTOP (Roche, Mannheim, Germany). Cell lysates were centrifuged 3000 g/5 min/4 °C and supernatants were mixed with 5× Laemmli reducing buffer [250 mM Tris-HCl pH 6.8, 10% (w/v) SDS, 30% (v/v) glycerol, 5% (v/v) β-mercaptolethanol, 0.04% (w/v) bromphenol blue], and incubated at 95 °C for 5 min. […] The membranes were incubated at 4 °C for 16 h with primary anti-IĸB-α (Cell Signaling; product No. 4814; dilution 1:1,000), anti-p44/42 MAPK (ERK1/2) (Cell Signaling; product No. 9102; dilution 1:1,000), anti-phospho-p44/42 MAPK (ERK1/2) (Cell Signaling; product No. 9101; dilution 1:1,000), anti-JNK1/2/3 (Abcam; product No. ab179461; dilution 1:1,000), anti-phosho-JNK1/2/3 (Abcam; product No. ab76572; dilution 1:5,000), anti-p38 MAPK (Cell Signaling; product No. 8690; dilution 1:1,000), anti-phospho-p38 MAPK (Cell Signaling; product No. 9210; dilution 1:1,000), and anti-β-actin (Santa Cruz, Aachen, Germany; product No. sc-47778; dilution 1:5000) antibodies. […] The amount of bound secondary antibody was determined using WesternSure® PREMIUM Chemiluminescent Substrate (LI-COR, Lincoln, NE, USA). Chemiluminescence was detected using a LI-COR C-DiGit chemiluminescence imaging system (LI-COR).
(§2) Figure 6 Effect of N-arylcinnamamide derivatives on the activation of MAPKs. […] Cells were collected 30 min after LPS stimulation and selected proteins were detected by Western blot and immunodetection.

Structure (SMILES) | effect on MAPKs activity
O=C(O)/C=C/c1ccccc1 [CA, cinnamic acid, reference compound] | no effect
O=C(/C=C/c1ccccc1)Nc1cc(Cl)ccc1Cl [Compound 8, (2E)-N-(2,5-dichlorophenyl)-3-phenylprop-2-enamide] | no effect
O=C(/C=C/c1ccccc1)Nc1cc(C(F)(F)F)ccc1Cl [Compound 17, (2E)-N-[2-Chloro-5-(trifluoromethyl)phenyl]-3-phenylprop-2-enamide] | no effect

Test system: IκBα
Assay: Signaling pathway analysis (Western blot): IκBα level
Assay type: cell-based
Conditions: 2 µM, 30 min after LPS 1 µg/mL
Method: as §1, §2

Structure (SMILES) | effect on IκBα levels
O=C(O)/C=C/c1ccccc1 [CA, cinnamic acid, reference compound] | no effect
O=C(/C=C/c1ccccc1)Nc1cc(Cl)ccc1Cl [Compound 8, (2E)-N-(2,5-dichlorophenyl)-3-phenylprop-2-enamide] | no effect
O=C(/C=C/c1ccccc1)Nc1cc(C(F)(F)F)ccc1Cl [Compound 17, (2E)-N-[2-Chloro-5-(trifluoromethyl)phenyl]-3-phenylprop-2-enamide] | no effect

Test system: TNF-α
Assay: TNF-α secretion by LPS-stimulated PMA-differentiated THP1-Blue™ NF-κB macrophages (ELISA)
Assay type: cell-based, Human
Conditions: 2 µM, LPS 1 µg/mL, 24 h
Method: Differentiated THP1-Blue™ NF-κB macrophages (see the chapter 3.6) were pre-treated for 1 h with 2 µM solutions of the tested compounds 8, 12, 6, 17, cinnamic acid, and prednisone dissolved in DMSO, or only the vehicle [0.1% (v/v) […] solution]. The inflammatory-like response was triggered by adding 1 μg/mL of LPS from E. coli 0111:B4 (Sigma-Aldrich) to the pre-treated macrophages; the control cells were left without LPS treatment. After 24 h, the supernatants were collected and the concentration of TNF-α was measured using a Human TNF-α ELISA Kit (Diaclone, Besançon, France), according to the manufacturer’s manual.
Figure 7 Effect of N-arylcinnamamide derivatives on the secretion of TNF-α. THP1-Blue™ NF-κB cells were differentiated to macrophages by PMA. Such cells were pretreated by compounds or PDS (2 µM) for 1 h, then LPS (1 µg/mL) was added to trigger the inflammatory signalization. Cultivation medium was collected 24 h after LPS stimulation, and the amount of TNF-α was measured by the ELISA technique. Graph represents mean ± SEM. * indicates statistical significance (p < 0.05) to DMSO group; ** indicates statistical significance (p < 0.01) to DMSO group **** indicates statistical significance (p < 0.0001) to DMSO group.

Structure (SMILES) | effect on TNF-α production (in words) | decrease of the level of TNF-α
O=C(O)/C=C/c1ccccc1 [CA, cinnamic acid, reference compound] | did not affect | 
O=C(/C=C/c1ccccc1)Nc1cccc(C(F)(F)F)c1 [Compound 6, (2E)-3-Phenyl-N-[3-(trifluoromethyl)phenyl]prop-2-enamide] |  | 10.4%
O=C(/C=C/c1ccccc1)Nc1c(Br)cccc1Br [Compound 12, (2E)-N-(2,6-dibromophenyl)-3-phenylprop-2-enamide] | decreased | 10%
O=C(/C=C/c1ccccc1)Nc1cc(C(F)(F)F)ccc1Cl [Compound 17, (2E)-N-[2-Chloro-5-(trifluoromethyl)phenyl]-3-phenylprop-2-enamide] | decreased | 12.4%
C[C@]12C=CC(=O)C=C1CC[C@@H]1[C@@H]2C(=O)C[C@@]2(C)[C@H]1CC[C@]2(O)C(=O)CO [PDS, prednisone, reference compound] |  | 70.3%

Test system: THP1-Blue™ NF-κB cells
Assay: Cell viability determination (WST-1), 24 h
Assay type: cell-based
Conditions: WST-1, 24 h incubation, serum-free medium, three independent measurements; read-out: IC50 ± SEM, viability of THP1-Blue™ NF-κB cell line
Method: The cell viability was determined as was described previously. […] The final concentration of DMSO was 0.1% (v/v) in each well. Measurements were taken after 24 h incubation with the tested substances. Viability was measured by the Cell Proliferation Reagent kit WST-1 (Roche Diagnostics, Basel, Switzerland) according to the manufacturer’s manual. […] The IC50 values were calculated by four-parameter logistic (4PL) analysis from obtained viability curves.

Structure (SMILES) | IC50
Cc1cccc(NC(=O)/C=C/c2ccccc2)c1 [Compound 2] | > 30 µM
Cc1ccc(NC(=O)/C=C/c2ccccc2)cc1 [Compound 3] | > 30 µM
O=C(/C=C/c1ccccc1)Nc1c(Br)cccc1Br [Compound 12, (2E)-N-(2,6-dibromophenyl)-3-phenylprop-2-enamide] | > 30 µM

More lines, now with the values ahead:

IC50 | Structure (SMILES)
> 30 µM | O=C(O)/C=C/c1ccccc1 [CA, cinnamic acid, reference compound]
11.6 ± 1.13 µM | O=C(/C=C/c1ccccc1)Nc1cccc(C(F)(F)F)c1 [Compound 6, (2E)-3-Phenyl-N-[3-(trifluoromethyl)phenyl]prop-2-enamide]
> 30 µM | O=C(/C=C/c1ccccc1)Nc1cc(Cl)ccc1Cl [Compound 8, (2E)-N-(2,5-dichlorophenyl)-3-phenylprop-2-enamide]
> 30 µM | O=C(/C=C/c1ccccc1)Nc1cc(C(F)(F)F)ccc1Cl [Compound 17, (2E)-N-[2-Chloro-5-(trifluoromethyl)phenyl]-3-phenylprop-2-enamide]

Test system: NF-κB p65
Assay: Immunocytochemical analysis of NF-κB nuclear migration
Assay type: cell-based
Conditions: 2 µM, 1 h after LPS 1 µg/mL, PMA-differentiated macrophages
Method: To differentiate THP1-Blue™ NF-κB monocytes into macrophages, the cells were stimulated with phorbol myristate acetate (PMA) at the final concentration of 50 ng/mL, as was described previously. Cells were seeded into 8-well cell culture glass slide (SPL, Korea) at the concentration of 500,000 cells/mL, 150,000 cells per well. The compound 17 was added at the final concentration of 2 µM, and 1 h later, the cells were activated by LPS (1 µg/mL). After 1h, the culture slide was washed with PBS and fixed with 4% formaldehyde. The cells were permeabilized by 0.1% Triton X-100 (v/v; Merck) and blocked with 3% bovine serum albumin (BSA, Merck) dissolved in PBS. The primary antibody NF-κB p65 (Abcam, Cambridge, UK; product No. ab16502) at concentration 2.5 µg/mL was used for overnight incubation at 4 °C. After that, secondary anti-rabbit antibody labeled with Alexa Fluor® 488 (Cell Signaling; product No. 4412; dilution 1:1000) was added for 1 h in dark, and the nuclei were stained using 0,5 µg/mL DAPI (Merck) for 5 min. The wells were washed three-times between the mentioned steps with PBS. The coverslip was mounted with VectaShield mounting (Vector laboratories, Burlingame, CA, USA) medium and sealed with the nail polish. The nail polish was allowed to dry at 4 °C and the translocation of NF-κB was observed by fluorescence microscopy. […]

Structure (SMILES) | nuclear translocation of NF-κB after LPS stimulation
O=C(/C=C/c1ccccc1)Nc1cc(C(F)(F)F)ccc1Cl [Compound 17, (2E)-N-[2-Chloro-5-(trifluoromethyl)phenyl]-3-phenylprop-2-enamide] | slightly affected

Test system: not given
Assay: not given
Set-up: method as in PMID 30087309
Conditions: cited from earlier work

Structure (SMILES) | log k
O=C(/C=C/c1ccccc1)Nc1cccc(C(F)(F)F)c1 [Compound 6, (2E)-3-Phenyl-N-[3-(trifluoromethyl)phenyl]prop-2-enamide] | 0.4859

Test system: transcription factor NF-κB
Assay: Determination of LPS-induced NF-κB activity (Quanti-Blue, SEAP reporter)
Assay type: cell-based
Conditions: 2 µM, same concentration as prednisone
Method: The activity of NF-κB transcription factors was evaluated on THP1-Blue™ NF-κB cells as described previously. […] After 24 h of incubation, 20 µL of cultivation medium was mixed with 200 µL of Quanti-Blue™ medium (Invivogen) and incubated according to the manufacturer’s instructions at 37 °C for 30–40 min. The activity of NF-κB was determined as secretion of embryonic alkaline phosphatase spectrophotometrically in a Tecan Infinite M200 (Tecan, Männedorf Switzerland) at 650 nm and compared with an untreated control (100%).
Figure 3 Effect of the tested compounds on the activity of transcription factor NF-κB. THP1-Blue™ NF-κB cells were pretreated by compounds (2 µM; or 0.5 µM for 10, 11, and 13) or prednisone (PDS; 2 µM) dissolved in DMSO at indicated concentrations for 1 h. Then, lipopolysaccharide (LPS) 1 µg/mL was added to trigger the NF-κB activation. The activity of NF-κB was measured 24 h after LPS stimulation using QuantiBlue™ assay. Graph represents mean ± SEM. Red dotted line show value of DMSO-only treated group, azur dotted line CA treated group, and blue dotted line PDS treated group. ** indicates statistical significance (p < 0.01) to DMSO group; *** indicates statistical significance (p < 0.001) to DMSO group **** indicates statistical significance (p < 0.0001) to DMSO group.

Structure (SMILES) | inhibitory effect on NF-κB activity compared with prednisone (in words)
O=C(/C=C/c1ccccc1)Nc1cc(Cl)ccc1Cl [Compound 8, (2E)-N-(2,5-dichlorophenyl)-3-phenylprop-2-enamide] | comparable with prednisone
O=C(/C=C/c1ccccc1)Nc1c(Br)cccc1Br [Compound 12, (2E)-N-(2,6-dibromophenyl)-3-phenylprop-2-enamide] | comparable with prednisone
O=C(/C=C/c1ccccc1)Nc1cc(C(F)(F)F)ccc1Cl [Compound 17, (2E)-N-[2-Chloro-5-(trifluoromethyl)phenyl]-3-phenylprop-2-enamide] | comparable with prednisone

Same assay, conditions: concentration of compounds 2 µM; LPS 1 µg/mL, 24 h

Structure (SMILES) | inhibition at 2 µM
O=C(O)/C=C/c1ccccc1 [CA, cinnamic acid, reference compound] | 11.4%
Cc1cccc(NC(=O)/C=C/c2ccccc2)c1 [Compound 2] | 9%
Cc1ccc(NC(=O)/C=C/c2ccccc2)cc1 [Compound 3] | 8.5%
O=C(/C=C/c1ccccc1)Nc1cccc(C(F)(F)F)c1 [Compound 6, (2E)-3-Phenyl-N-[3-(trifluoromethyl)phenyl]prop-2-enamide] | 16.7%
O=C(/C=C/c1ccccc1)Nc1cc(Cl)ccc1Cl [Compound 8, (2E)-N-(2,5-dichlorophenyl)-3-phenylprop-2-enamide] | 22.5%
O=C(/C=C/c1ccccc1)Nc1c(Br)cccc1Br [Compound 12, (2E)-N-(2,6-dibromophenyl)-3-phenylprop-2-enamide] | 23.1%
O=C(/C=C/c1ccccc1)Nc1cc(C(F)(F)F)ccc1Cl [Compound 17, (2E)-N-[2-Chloro-5-(trifluoromethyl)phenyl]-3-phenylprop-2-enamide] | 27.1%
